Data from US10167262B2, “Herbicidal substituted 3-arylpyrazoles” (FMC CORPORATION, priority 2014, dated 2019).

Legend:
Type in all cases: in vivo
[1] = system: large (Lg) crabgrass (Digitaria sanguinalis); experiment: Test E pre-/postemergence greenhouse test, plant response rating 0-100; details: Preemergence, scale 0 to 100
[2] = system: morningglory (Ipomoea coccinea); experiment: as above; details: Preemergence, scale 0 to 100
[3] = system: cocklebur (common cocklebur, Xanthium strumarium); experiment: as above; details: Preemergence, scale 0 to 100
Summary of the method: (§1)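 Greenhouse pot assay, two application timings. Pre- to silt loam at planting; post- to 1–4-leaf plants. Visual 0–100 score at 14–21 d.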

[4] = system: yellow nutsedge (Cyperus esculentus); experiment: as above; details: Preemergence, scale 0 to 100
[5] = system: smartweed (ladysthumb smartweed, Polygonum persicaria); experiment: as above; details: scale 0 to 100; for Smartweed plant response rating: Preemergence
[6] = system: green foxtail (Setaria viridis); experiment: as above; details: Preemergence, scale 0 to 100
[7] = system: johnsongrass (Sorghum halepense); experiment: as above; details: Preemergence, scale 0 to 100
[8] = system: goosegrass (Eleusine indica); experiment: as above; details: Preemergence, scale 0 to 100
[9] = system: field violet (Viola arvensis); experiment: Test D postemergence controlled growth environment test, plant response rating 0-100
Text: (§2) Seeds of plant species selected from bluegrass (annual bluegrass, Poa annua), blackgrass (Alopecurus myosuroides), canarygrass (Phalaris minor), chickweed (common chickweed, Stellaria media), galium (catchweed bedstraw, Galium aparine), downy bromegrass (Bromus tectorum), field violet (Viola arvensis), green foxtail (Setaria viridis), deadnettle (henbit deadnettle, Lamium amplexicaule), Italian ryegrass (Lolium multiflorum), kochia (Kochia scoparia), lambsquarters (Chenopodium album), oilseed rape (Brassica napus), pigweed (Amaranthus retroflexus), Russian thistle (Salsola kali), spring barley (Hordeum vulgare), spring wheat (Triticum aestivum), wild buckwheat (Polygonum convolvulus), wild mustard (Sinapis arvensis), wild oat (Avena fatua), windgrass (Apera spica-venti), winter barley (Hordeum vulgare), and winter wheat (Triticum aestivum) were planted in pots containing Redi-Earth® planting medium (Scotts Company, 14111 Scottslawn Road, Marysville, Ohio 43041) comprising spaghnum peat moss, vermiculite, wetting agent and starter nutrients and treated with postemergence applications of test chemicals formulated in a non-phytotoxic solvent mixture which included a surfactant. Plants ranged in height from 2 to 18 cm (1- to 4-leaf stage). Treated plants and controls were maintained in a controlled growth environment for 14 days after which time all species were compared to controls and visually evaluated. Plant response ratings, summarized in Table D, are based on a scale of 0 to 100 where 0 is no effect and 100 is complete control. A dash (-) response means no test result.

[10] = system: wild buckwheat (Polygonum convolvulus); experiment: as above
Text: as §2

[11] = system: pigweed (Amaranthus retroflexus); experiment: as above
Text: as §2

[12] = system: nightshade (eastern black nightshade, Solanum ptycanthum); experiment: Test E pre-/postemergence greenhouse test, plant response rating 0-100; details: Preemergence, scale 0 to 100
Summary of the method: as §1

[13] = system: lambsquarters (Chenopodium album); experiment: as above; details: Preemergence, scale 0 to 100
Summary of the method: as §1

With `O=C(c1ccccc1)c1cn(S(=O)(=O)C(F)(F)F)nc1-c1cc(Cl)cc(Cl)c1` [Compound 2] the “Crabgrass, Large plant response rating” value ([1]; 31 g ai/ha) was 0, the “Crabgrass, Large plant response rating” value ([1]; 62 g ai/ha) was 0 and the “Crabgrass, Large plant response rating” value ([1]; 125 g ai/ha) was 0. The “Crabgrass, Large plant response rating” value ([1]; 250 g ai/ha) was 0, the “Crabgrass, Large plant response rating” value ([1]; 500 g ai/ha) was 0 and the “Morningglory plant response rating” value ([2]; 31 g ai/ha) was 0. The “Morningglory plant response rating” value ([2]; 62 g ai/ha) was 0, the “Morningglory plant response rating” value ([2]; 125 g ai/ha) was 0 and the “Morningglory plant response rating” value ([2]; 250 g ai/ha) was 0. For the same compound, the “Morningglory plant response rating” value ([2]; 500 g ai/ha) was 0, the “Cocklebur plant response rating” value ([3]; 31 g ai/ha) was 0 and the “Cocklebur plant response rating” value ([3]; 62 g ai/ha) was 0. For the same compound, the “Cocklebur plant response rating” value ([3]; 125 g ai/ha) was 0, the “Cocklebur plant response rating” value ([3]; 250 g ai/ha) was 0 and the “Nutsedge, Yellow plant response rating” value ([4]; 31 g ai/ha) was 0. The “Nutsedge, Yellow plant response rating” value ([4]; 125 g ai/ha) was 50, the “Nutsedge, Yellow plant response rating” value ([4]; 250 g ai/ha) was 40 and the “Nutsedge, Yellow plant response rating” value ([4]; 500 g ai/ha) was 35. The “Smartweed plant response rating” value ([5]; 31 g ai/ha) was 0, the “Smartweed plant response rating” value ([5]; 125 g ai/ha) was 0 and the “Smartweed plant response rating” value ([5]; 250 g ai/ha) was 0. The “Foxtail, Green plant response rating” value ([6]; 31 g ai/ha) was 0, the “Foxtail, Green plant response rating” value ([6]; 62 g ai/ha) was 0 and the “Foxtail, Green plant response rating” value ([6]; 125 g ai/ha) was 0. The “Foxtail, Green plant response rating” value ([6]; 250 g ai/ha) was 0, the “Foxtail, Green plant response rating” value ([6]; 500 g ai/ha) was 0 and the “Johnsongrass plant response rating” value ([7]; 31 g ai/ha) was 0. The “Johnsongrass plant response rating” value ([7]; 62 g ai/ha) was 0, the “Johnsongrass plant response rating” value ([7]; 125 g ai/ha) was 0 and the “Johnsongrass plant response rating” value ([7]; 250 g ai/ha) was 0. The “Johnsongrass plant response rating” value ([7]; 500 g ai/ha) was 0, the “Goosegrass plant response rating” value ([8]; 31 g ai/ha) was 0 and the “Goosegrass plant response rating” value ([8]; 62 g ai/ha) was 0. The “Goosegrass plant response rating” value ([8]; 125 g ai/ha) was 0, the “Goosegrass plant response rating” value ([8]; 250 g ai/ha) was 0 and the “Goosegrass plant response rating” value ([8]; 500 g ai/ha) was 0.
With `O=C(c1ccccc1)c1cn(S(=O)(=O)CC(F)(F)F)nc1-c1cc(Cl)cc(Cl)c1` [Compound 3] the “Crabgrass, Large plant response rating” value ([1]; 31 g ai/ha) was 0, the “Crabgrass, Large plant response rating” value ([1]; 62 g ai/ha) was 0 and the “Crabgrass, Large plant response rating” value ([1]; 125 g ai/ha) was 0. For the same compound, the “Crabgrass, Large plant response rating” value ([1]; 250 g ai/ha) was 0, the “Crabgrass, Large plant response rating” value ([1]; 500 g ai/ha) was 0 and the “Morningglory plant response rating” value ([2]; 31 g ai/ha) was 0. The “Morningglory plant response rating” value ([2]; 62 g ai/ha) was 0, the “Morningglory plant response rating” value ([2]; 125 g ai/ha) was 0 and the “Morningglory plant response rating” value ([2]; 250 g ai/ha) was 0. For the same compound, the “Morningglory plant response rating” value ([2]; 500 g ai/ha) was 0, the “Cocklebur plant response rating” value ([3]; 31 g ai/ha) was 0 and the “Cocklebur plant response rating” value ([3]; 250 g ai/ha) was 0. The “Nutsedge, Yellow plant response rating” value ([4]; 62 g ai/ha) was 50, the “Nutsedge, Yellow plant response rating” value ([4]; 125 g ai/ha) was 35 and the “Nutsedge, Yellow plant response rating” value ([4]; 500 g ai/ha) was 75. For the same compound, the “Plant response rating, Smartweed” value ([5]; Postemergence, 500 g ai/ha) was 90, the “Smartweed plant response rating” value ([5]; 31 g ai/ha) was 0 and the “Smartweed plant response rating” value ([5]; 62 g ai/ha) was 0. The “Smartweed plant response rating” value ([5]; 125 g ai/ha) was 0, the “Smartweed plant response rating” value ([5]; 250 g ai/ha) was 0 and the “Smartweed plant response rating” value ([5]; 500 g ai/ha) was 0. For the same compound, the “Foxtail, Green plant response rating” value ([6]; 31 g ai/ha) was 0, the “Foxtail, Green plant response rating” value ([6]; 62 g ai/ha) was 0 and the “Foxtail, Green plant response rating” value ([6]; 125 g ai/ha) was 0. The “Foxtail, Green plant response rating” value ([6]; 250 g ai/ha) was 0, the “Foxtail, Green plant response rating” value ([6]; 500 g ai/ha) was 0 and the “Johnsongrass plant response rating” value ([7]; 31 g ai/ha) was 0. For the same compound, the “Johnsongrass plant response rating” value ([7]; 62 g ai/ha) was 0, the “Johnsongrass plant response rating” value ([7]; 125 g ai/ha) was 0 and the “Johnsongrass plant response rating” value ([7]; 250 g ai/ha) was 35. The “Johnsongrass plant response rating” value ([7]; 500 g ai/ha) was 35, the “Goosegrass plant response rating” value ([8]; 31 g ai/ha) was 0 and the “Goosegrass plant response rating” value ([8]; 62 g ai/ha) was 0. The “Goosegrass plant response rating” value ([8]; 125 g ai/ha) was 0, the “Goosegrass plant response rating” value ([8]; 250 g ai/ha) was 35 and the “Goosegrass plant response rating” value ([8]; 500 g ai/ha) was 35.
In the case of `O=C(c1ccccc1)c1cn(CO)nc1-c1cc(Cl)cc(Cl)c1` [Compound 15, [3-(3,5-dichlorophenyl)-1-(hydroxymethyl)-1H-pyrazol-4-yl]phenylmethanone], the “Crabgrass, Large plant response rating” value ([1]; 31 g ai/ha) is reported as 0, the “Crabgrass, Large plant response rating” value ([1]; 62 g ai/ha) is reported as 0 and the “Crabgrass, Large plant response rating” value ([1]; 125 g ai/ha) is reported as 0. The “Crabgrass, Large plant response rating” value ([1]; 250 g ai/ha) was 0, the “Crabgrass, Large plant response rating” value ([1]; 500 g ai/ha) was 0 and the “Morningglory plant response rating” value ([2]; 62 g ai/ha) was 0. The “Morningglory plant response rating” value ([2]; 125 g ai/ha) was 0, the “Morningglory plant response rating” value ([2]; 250 g ai/ha) was 0 and the “Morningglory plant response rating” value ([2]; 500 g ai/ha) was 0. For the same compound, the “Cocklebur plant response rating” value ([3]; 31 g ai/ha) was 0, the “Cocklebur plant response rating” value ([3]; 62 g ai/ha) was 0 and the “Cocklebur plant response rating” value ([3]; 125 g ai/ha) was 0. The “Nutsedge, Yellow plant response rating” value ([4]; 31 g ai/ha) was 15, the “Nutsedge, Yellow plant response rating” value ([4]; 62 g ai/ha) was 35 and the “Nutsedge, Yellow plant response rating” value ([4]; 125 g ai/ha) was 10. For the same compound, the “Nutsedge, Yellow plant response rating” value ([4]; 250 g ai/ha) was 0, the “Nutsedge, Yellow plant response rating” value ([4]; 500 g ai/ha) was 0 and the “Smartweed plant response rating” value ([5]; 31 g ai/ha) was 0. For the same compound, the “Smartweed plant response rating” value ([5]; 62 g ai/ha) was 0, the “Smartweed plant response rating” value ([5]; 125 g ai/ha) was 0 and the “Smartweed plant response rating” value ([5]; 250 g ai/ha) was 100. For the same compound, the “Smartweed plant response rating” value ([5]; 500 g ai/ha) was 100, the “Foxtail, Green plant response rating” value ([6]; 31 g ai/ha) was 0 and the “Foxtail, Green plant response rating” value ([6]; 62 g ai/ha) was 0. The “Foxtail, Green plant response rating” value ([6]; 125 g ai/ha) was 0, the “Foxtail, Green plant response rating” value ([6]; 250 g ai/ha) was 0 and the “Foxtail, Green plant response rating” value ([6]; 500 g ai/ha) was 0. The “Johnsongrass plant response rating” value ([7]; 31 g ai/ha) was 0, the “Johnsongrass plant response rating” value ([7]; 62 g ai/ha) was 0 and the “Johnsongrass plant response rating” value ([7]; 125 g ai/ha) was 0. The “Johnsongrass plant response rating” value ([7]; 250 g ai/ha) was 0, the “Johnsongrass plant response rating” value ([7]; 500 g ai/ha) was 0 and the “Goosegrass plant response rating” value ([8]; 31 g ai/ha) was 0. For the same compound, the “Goosegrass plant response rating” value ([8]; 125 g ai/ha) was 0, the “Goosegrass plant response rating” value ([8]; 250 g ai/ha) was 0 and the “Goosegrass plant response rating” value ([8]; 500 g ai/ha) was 0.
With `Clc1cc(Cl)cc(-c2n[nH]cc2C(=NN2CCCC2)c2ccccc2)c1` [Compound 30, N-[[3-(3,5-dichlorophenyl)-1H-pyrazol-4-yl]phenylmethylene]-1-pyrrolidinamine] the “Plant response rating, Field Violet” value ([9]; 16 g ai/ha) was 0, the “Plant response rating, Field Violet” value ([9]; 31 g ai/ha) was 0 and the “Plant response rating, Field Violet” value ([9]; 62 g ai/ha) was 10. For the same compound, the “Plant response rating, Field Violet” value ([9]; 125 g ai/ha) was 10, the “Plant response rating, Field Violet” value ([9]; 250 g ai/ha) was 15 and the “Plant response rating, Buckwheat, Wild” value ([10]; 16 g ai/ha) was 0. The “Plant response rating, Buckwheat, Wild” value ([10]; 31 g ai/ha) was 0, the “Plant response rating, Buckwheat, Wild” value ([10]; 62 g ai/ha) was 5 and the “Plant response rating, Buckwheat, Wild” value ([10]; 125 g ai/ha) was 15. The “Plant response rating, Buckwheat, Wild” value ([10]; 250 g ai/ha) was 35, the “Plant response rating, Pigweed” value ([11]; 16 g ai/ha) was 25 and the “Plant response rating, Pigweed” value ([11]; 31 g ai/ha) was 60. The “Plant response rating, Pigweed” value ([11]; 62 g ai/ha) was 70, the “Plant response rating, Pigweed” value ([11]; 125 g ai/ha) was 80 and the “Plant response rating, Pigweed” value ([11]; 250 g ai/ha) was 90.
For `Cn1cc(C(=O)c2ccccc2)c(-c2cc(Cl)cc(Cl)c2)n1` [Compound 54, [3-(3,5-dichlorophenyl)-1-methyl-1H-pyrazol-4-yl]phenylmethanone], the “Morningglory plant response rating” value ([2]; 125 g ai/ha) was 7, the “Morningglory plant response rating” value ([2]; 250 g ai/ha) was 12 and the “Cocklebur plant response rating” value ([3]; 125 g ai/ha) was 0. The “Cocklebur plant response rating” value ([3]; 250 g ai/ha) was 0, the “Nightshade plant response rating” value ([12]; 125 g ai/ha) was 0 and the “Nightshade plant response rating” value ([12]; 250 g ai/ha) was 0. The “Lambsquarters plant response rating” value ([13]; 125 g ai/ha) was 68, the “Lambsquarters plant response rating” value ([13]; 250 g ai/ha) was 86 and the “Plant response rating, Lambsquarters” value ([13]; 1000 g ai/ha) was 99. The “Smartweed plant response rating” value ([5]; 125 g ai/ha) was 0 and the “Smartweed plant response rating” value ([5]; 250 g ai/ha) was 0.
